Target: T1, full length AKT E17K (Homo sapiens, UniProt P31749, E17K)
T1 construct: host or cells: HEK-293 (ATCC CRL-1573)
Experiment: NanoBRET Target Engagement (TE) Assay
Format: cell-based
Settings: competitive tracer displacement in living cells, read-out: AKT1 E17K IC50
Procedure, shortened: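 Compound and tracer incubated 2 h before luminescence at donor 450 nm and acceptor 600 nm, with extracellular signal inhibited. EC50 by sigmoidal variable-slope regression.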

T1 sequence (P31749 whole entry E17K): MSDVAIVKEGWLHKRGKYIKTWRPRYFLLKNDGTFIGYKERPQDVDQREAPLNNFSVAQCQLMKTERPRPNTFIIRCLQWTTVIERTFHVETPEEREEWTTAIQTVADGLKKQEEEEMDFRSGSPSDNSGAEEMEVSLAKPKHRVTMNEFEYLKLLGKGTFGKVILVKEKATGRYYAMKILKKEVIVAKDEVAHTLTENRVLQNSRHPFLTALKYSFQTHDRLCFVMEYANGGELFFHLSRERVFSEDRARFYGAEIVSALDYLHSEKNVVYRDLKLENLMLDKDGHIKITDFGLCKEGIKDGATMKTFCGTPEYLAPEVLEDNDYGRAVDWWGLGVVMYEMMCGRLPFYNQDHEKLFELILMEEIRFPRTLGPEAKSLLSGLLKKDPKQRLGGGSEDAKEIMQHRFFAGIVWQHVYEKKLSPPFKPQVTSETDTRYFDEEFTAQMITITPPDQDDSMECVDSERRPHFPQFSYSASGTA

Row | SMILES | IC50 [nM]
1 | N#Cc1cc(N2C[C@H]3C[C@@H]2CN3Cc2ccc(-n3c(-c4cccnc4N)nc4ccc(-c5ccccc5)nc43)cc2)ncn1 [Example 218, 6-((1R,4R)-5-(4-(2-(2-Aminopyridin-3-yl)-5-phenyl-3H-imidazo[4,5-b]pyridin-3-yl)benzyl)-2,5-diazabicyclo[2.2.1]heptan-2-yl)pyrimidine-4-carbonitrile] | 15 to 60
2 | N#Cc1nccc(N2CC3CCC2CN3Cc2ccc(-n3c(-c4cccnc4N)nc4ccc(-c5ccccc5)nc43)cc2)n1 (stereo not drawn) [Example 219, 4-(5-(4-(2-(2-Aminopyridin-3-yl)-5-phenyl-3H-imidazo[4,5-b]pyridin-3-yl)benzyl)-2,5-diazabicyclo[2.2.2]octan-2-yl)pyrimidine-2-carbonitrile] | < 15
3 | N#Cc1ccnc(N2CC3CCC2CN3Cc2ccc(-n3c(-c4cccnc4N)nc4ccc(-c5ccccc5)nc43)cc2)n1 (stereo not drawn) [Example 220, 2-(5-(4-(2-(2-Aminopyridin-3-yl)-5-phenyl-3H-imidazo[4,5-b]pyridin-3-yl)benzyl)-2,5-diazabicyclo[2.2.2]octan-2-yl)pyrimidine-4-carbonitrile] | 60 to 600
4 | N#Cc1cc(N2CC3CCC2CN3Cc2ccc(-n3c(-c4cccnc4N)nc4ccc(-c5ccccc5)nc43)cc2)ncn1 (stereo not drawn) [Example 221, 6-(5-(4-(2-(2-Aminopyridin-3-yl)-5-phenyl-3H-imidazo[4,5-b]pyridin-3-yl)benzyl)-2,5-diazabicyclo[2.2.2]octan-2-yl)pyrimidine-4-carbonitrile] | 60 to 600
5 | [2H]C([2H])(c1ccc(-n2c(-c3cccnc3N)nc3ccc(-c4ccccc4)nc32)cc1)N1CCC(Nc2ccnc(C#N)n2)CC1 [Example 222, 4-((1-((4-(2-(2-Aminopyridin-3-yl)-5-phenyl-3H-imidazo[4,5-h]pyridin-3-yl)phenyl)methyl-d2)piperidin-4-yl)amino)pyrimidine-2-carbonitrile] | < 15
6 | CN(c1ncnc(C#N)n1)C1CCN(Cc2ccc(-n3c(-c4cccnc4N)nc4ccc(-c5ccccc5)nc43)cc2)CC1 [Example 223, 4-((1-(4-(2-(2-aminopyridin-3-yl)-5-phenyl-3H-imidazo[4,5-b]pyridin-3-yl)benzyl)piperidin-4-yl)(methyl)amino)-1,3,5-triazine-2-carbonitrile] | 15 to 60
7 | N#Cc1ncnc(N[C@H]2CCCN(Cc3ccc(-n4c(-c5cccnc5N)nc5ccc(-c6ccccc6)nc54)cc3)C2)n1 [Example 224, (S)-4-((1-(4-(2-(2-Aminopyridin-3-yl)-5-phenyl-3H-imidazo[4,5-b]pyridin-3-yl)benzyl)piperidin-3-yl)amino)-1,3,5-triazine-2-carbonitrile] | < 15
8 | C[C@@H]1CN(Cc2ccc(-n3c(-c4cccnc4N)nc4ccc(-c5ccccc5)nc43)cc2)CCN1c1ccnc(C#N)n1 [Example 225, (R)-4-(4-(4-(2-(2-aminopyridin-3-yl)-5-phenyl-3H-imidazo[4,5-b]pyridin-3-yl)benzyl)-2-methylpiperazin-1-yl)pyrimidine-2-carbonitrile] | 60 to 600
9 | C[C@@H]1CN(Cc2ccc(-n3c(-c4cccnc4N)nc4ccc(-c5ccccc5)nc43)cc2)CCN1c1nccc(C#N)n1 [Example 226, (R)-2-(4-(4-(2-(2-Aminopyridin-3-yl)-5-phenyl-3H-imidazo[4,5-b]pyridin-3-yl)benzyl)-2-methylpiperazin-1-yl)pyrimidine-4-carbonitrile] | 60 to 600
10 | C[C@@H]1CN(Cc2ccc(-n3c(-c4cccnc4N)nc4ccc(-c5ccccc5)nc43)cc2)CCN1c1cc(C#N)ncn1 [Example 227, (R)-6-(4-(4-(2-(2-Aminopyridin-3-yl)-5-phenyl-3H-imidazo[4,5-b]pyridin-3-yl)benzyl)-2-methylpiperazin-1-yl)pyrimidine-4-carbonitrile] | 60 to 600
11 | N#Cc1ccnc(N2CCCN(Cc3ccc(-n4c(-c5cccnc5N)nc5ccc(-c6ccccc6)nc54)cc3)CC2)n1 [Example 228, 2-(4-(4-(2-(2-Aminopyridin-3-yl)-5-phenyl-3H-imidazo[4,5-b]pyridin-3-yl)benzyl)-1,4-diazepan-1-yl)pyrimidine-4-carbonitrile] | 15 to 60
12 | N#Cc1nccc(C(=O)NC2C3CCC2CN(Cc2ccc(-n4c(-c5cccnc5N)nc5ccc(-c6ccccc6)nc54)cc2)C3)n1 (stereo not drawn) [Example 229, N-(3-(4-(2-(2-aminopyridin-3-yl)-5-phenyl-3H-imidazo[4,5-b]pyridin-3-yl)benzyl)-3-azabicyclo[3.2.1]octan-8-yl)-2-cyanopyrimidine-4-carboxamide] | 15 to 60
13 | N#Cc1cc(C(=O)NC2C3CCC2CN(Cc2ccc(-n4c(-c5cccnc5N)nc5ccc(-c6ccccc6)nc54)cc2)C3)ncn1 (stereo not drawn) [Example 230, N-(3-(4-(2-(2-aminopyridin-3-yl)-5-phenyl-3H-imidazo[4,5-b]pyridin-3-yl)benzyl)-3-azabicyclo[3.2.1]octan-8-yl)-6-cyanopyrimidine-4-carboxamide] | 60 to 600
14 | N#Cc1ccnc(NC2C3CCC2CN(Cc2ccc(-n4c(-c5cccnc5N)nc5ccc(-c6ccccc6)nc54)cc2)C3)n1 (stereo not drawn) [Example 231, 2-((3-(4-(2-(2-Aminopyridin-3-yl)-5-phenyl-3H-imidazo[4,5-b]pyridin-3-yl)benzyl)-3-azabicyclo[3.2.1]octan-8-yl)amino)pyrimidine-4-carbonitrile] | 600 to 10000
15 | [2H]C([2H])([2H])N(c1ccnc(C#N)n1)C1CCN(Cc2ccc(-n3c(-c4cccnc4N)nc4ccc(-c5ccccc5)nc43)cc2)CC1 [Example 232, 4-((1-(4-(2-(2-Aminopyridin-3-yl)-5-phenyl-3H-imidazo[4,5-b]pyridin-3-yl)benzyl)piperidin-4-yl)(methyl-d3)amino)pyrimidine-2-carbonitrile] | < 15
16 | [2H]C([2H])([2H])N(c1ncnc(C#N)n1)C1CCN(Cc2ccc(-n3c(-c4cccnc4N)nc4ccc(-c5ccccc5)nc43)cc2)CC1 [Example 233, 4-((1-(4-(2-(2-Aminopyridin-3-yl)-5-phenyl-3H-imidazo[4,5-b]pyridin-3-yl)benzyl)piperidin-4-yl)(methyl-d3)amino)-1,3,5-triazine-2-carbonitrile] | 15 to 60
17 | [2H]C([2H])([2H])N(C(=O)c1ccnc(C#N)n1)C1CCN(Cc2ccc(-n3c(-c4cccnc4N)nc4ccc(-c5ccccc5)nc43)cc2)CC1 [Example 234, N-(1-(4-(2-(2-aminopyridin-3-yl)-5-phenyl-3H-imidazo[4,5-b]pyridin-3-yl)benzyl)piperidin-4-yl)-2-cyano-N-(methyl-d3)pyrimidine-4-carboxamide] | < 15
18 | N#Cc1nccc(N2CCN(Cc3ccc(-n4c(-c5cccnc5N)nc5ccc(N6CCOCC6)nc54)cc3)CC2)n1 [Example 235, 4-(4-(4-(2-(2-Aminopyridin-3-yl)-5-morpholino-3H-imidazo[4,5-b]pyridin-3-yl)benzyl)piperazin-1-yl)pyrimidine-2-carbonitrile] | 60 to 600
19 | N#Cc1ccnc(N2CCN(Cc3ccc(-n4c(-c5cccnc5N)nc5ccc(N6CCOCC6)nc54)cc3)CC2)n1 [Example 236, 2-(4-(4-(2-(2-Aminopyridin-3-yl)-5-morpholino-3H-imidazo[4,5-b]pyridin-3-yl)benzyl)piperazin-1-yl)pyrimidine-4-carbonitrile] | 15 to 60
20 | N#Cc1cc(N2CCN(Cc3ccc(-n4c(-c5cccnc5N)nc5ccc(N6CCOCC6)nc54)cc3)CC2)ncn1 [Example 237, 6-(4-(4-(2-(2-Aminopyridin-3-yl)-5-morpholino-3H-imidazo[4,5-b]pyridin-3-yl)benzyl)piperazin-1-yl)pyrimidine-4-carbonitrile] | 15 to 60
21 | N#Cc1nccc(N2CCN(Cc3ccc(-n4c(-c5cccnc5N)nc5ccc(-c6cccc(=O)[nH]6)nc54)cc3)CC2)n1 [Example 238, 4-(4-(4-(2-(2-Aminopyridin-3-yl)-5-(6-oxo-1,6-dihydropyridin-2-yl)-3H-imidazo[4,5-b]pyridin-3-yl)benzyl)piperazin-1-yl)pyrimidine-2-carbonitrile] | 15 to 60
22 | N#Cc1nccc(NC2CCN(Cc3ccc(-n4c(-c5cccnc5N)nc5ccc(N6CCOCC6)nc54)cc3)CC2)n1 [Example 239, 4-((1-(4-(2-(2-Aminopyridin-3-yl)-5-morpholino-3H-imidazo[4,5-b]pyridin-3-yl)benzyl)piperidin-4-yl)amino)pyrimidine-2-carbonitrile] | < 15
23 | N#Cc1ccnc(NC2CCN(Cc3ccc(-n4c(-c5cccnc5N)nc5ccc(N6CCOCC6)nc54)cc3)CC2)n1 [Example 240, 2-((1-(4-(2-(2-Aminopyridin-3-yl)-5-morpholino-3H-imidazo[4,5-b]pyridin-3-yl)benzyl)piperidin-4-yl)amino)pyrimidine-4-carbonitrile] | 15 to 60
24 | N#Cc1cc(NC2CCN(Cc3ccc(-n4c(-c5cccnc5N)nc5ccc(N6CCOCC6)nc54)cc3)CC2)ncn1 [Example 241, 6-((1-(4-(2-(2-Aminopyridin-3-yl)-5-morpholino-3H-imidazo[4,5-b]pyridin-3-yl)benzyl)piperidin-4-yl)amino)pyrimidine-4-carbonitrile] | 15 to 60
25 | N#Cc1nccc(N2CCN(Cc3ccc(-n4c(-c5cccnc5N)nc5ccc(-c6ccc(F)cc6)nc54)cc3)CC2)n1 [Example 242, 4-(4-(4-(2-(2-Aminopyridin-3-yl)-5-(4-fluorophenyl)-3H-imidazo[4,5-b]pyridin-3-yl)benzyl)piperazin-1-yl)pyrimidine-2-carbonitrile] | 15 to 60
26 | N#Cc1ccnc(N2CCN(Cc3ccc(-n4c(-c5cccnc5N)nc5ccc(-c6ccc(F)cc6)nc54)cc3)CC2)n1 [Example 243, 2-(4-(4-(2-(2-Aminopyridin-3-yl)-5-(4-fluorophenyl)-3H-imidazo[4,5-b]pyridin-3-yl)benzyl)piperazin-1-yl)pyrimidine-4-carbonitrile] | 60 to 600
27 | N#Cc1nc(C(=O)NCc2ccc(-n3c(-c4cccnc4N)nc4cccnc43)cc2)cs1 [Example 244, N-(4-(2-(2-Aminopyridin-3-yl)-3H-imidazo[4,5-b]pyridin-3-yl)benzyl)-2-cyanothiazole-4-carboxamide] | 600 to 10000

Source: patent publication US12209087B2, “AKT1 modulators” (Alterome Therapeutics, Inc., priority 2022, dated 2025)
